Test results as given in ChEMBL document CHEMBL5113482, “Discovery of fused benzimidazole-imidazole autophagic flux inhibitors for treatment of triple-negative breast cancer” (Eur J Med Chem, 2022).
Active and inactive are the calls of the source. The rule behind the calls is not given here.

Legend:
SCC-25 = assay: Antiproliferative activity against human SCC-25 cells assessed as cell growth inhibition measured after 48 hrs by MTT assay; format: functional, cell-based; conditions: SCC-25, 48 h
U-251 = assay: Antiproliferative activity against human U-251 cells assessed as cell growth inhibition measured after 48 hrs by MTT assay; format: functional, cell-based; conditions: U-251, 48 h
LN-229 = assay: Antiproliferative activity against human LN-229 cells assessed as cell growth inhibition measured after 48 hrs by MTT assay; format: functional, cell-based; conditions: LN-229, 48 h
MDA-MB-468 [1] = assay: Inhibition of colony formation in human MDA-MB-468 cells at 5 to 20 umol/l pretreated for 48 hrs followed by replacement of fresh medium and measured after 15 days by crystal violet staining based assay; format: functional, cell-based; conditions: dose 5-20 µmol/L
MDA-MB-231 [2] = assay: Inhibition of autophagy in human MDA-MB-231 cells assessed as increase in LC3B-II expression measured after 48 hrs by immunofluorescence analysis; format: functional, cell-based; conditions: dose 5-20 µM
MDA-MB-468 [3] = assay: Inhibition of autophagy in human MDA-MB-468 cells assessed as increase in LC3B-II expression measured after 48 hrs by immunofluorescence analysis; format: functional, cell-based; conditions: dose 5-20 µM
[4] = target: Serine-protein kinase ATM (Homo sapiens) (UniProt Q13315); assay: Activation of ATM phosphorylation in human MDA-MB-468 cells at 5 to 20 uM measured after 6 to 48 hrs by Western blot analysis; format: cell-based; conditions: filed as activator, dose 5-20 µM, time 6-48 hrs
Nibrin (Homo sapiens) = target: T1, Nibrin (Homo sapiens) (UniProt O60934); assay: Activation of NBS1 phosphorylation in human MDA-MB-468 cells at 5 to 20 uM measured after 6 to 48 hrs by Western blot analysis; format: cell-based; conditions: filed as activator, dose 5-20 µM, time 6-48 hrs
T1 sequence (whole entry): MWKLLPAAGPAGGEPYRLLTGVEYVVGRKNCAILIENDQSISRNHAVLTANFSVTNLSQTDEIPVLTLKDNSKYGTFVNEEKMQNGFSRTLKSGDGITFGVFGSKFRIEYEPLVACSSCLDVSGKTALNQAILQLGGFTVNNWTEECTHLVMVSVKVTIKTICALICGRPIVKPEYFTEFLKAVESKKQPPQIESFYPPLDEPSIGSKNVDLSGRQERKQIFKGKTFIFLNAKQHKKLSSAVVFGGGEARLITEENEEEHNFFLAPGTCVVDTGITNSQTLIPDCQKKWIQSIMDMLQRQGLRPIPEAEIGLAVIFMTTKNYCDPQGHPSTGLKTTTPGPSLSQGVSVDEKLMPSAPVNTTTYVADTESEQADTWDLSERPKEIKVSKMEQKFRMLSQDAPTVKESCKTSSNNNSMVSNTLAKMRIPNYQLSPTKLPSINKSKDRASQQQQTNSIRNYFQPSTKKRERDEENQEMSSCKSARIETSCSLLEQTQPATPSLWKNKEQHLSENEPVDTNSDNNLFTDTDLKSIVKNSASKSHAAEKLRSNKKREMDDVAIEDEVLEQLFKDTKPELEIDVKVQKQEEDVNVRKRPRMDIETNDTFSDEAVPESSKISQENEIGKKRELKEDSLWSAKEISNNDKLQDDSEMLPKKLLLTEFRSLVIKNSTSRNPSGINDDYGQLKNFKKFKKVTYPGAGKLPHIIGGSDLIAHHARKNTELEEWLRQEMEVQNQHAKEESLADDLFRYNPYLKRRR

MDA-MB-231 [5] = assay: Induction of DNA damage in human MDA-MB-231 cells assessed as reduction in RAD51 expression measured after 6 to 48 hrs by Western blot analysis; format: functional, cell-based; conditions: dose 5-20 µM, time 6-48 hrs, DDE = dose-dependent effect
MDA-MB-468 [6] = assay: Induction of DNA damage in human MDA-MB-468 cells assessed as reduction in RAD51 expression measured after 6 to 48 hrs by Western blot analysis; format: functional, cell-based; conditions: dose 5-20 µM, time 6-48 hrs, DDE = dose-dependent effect
MDA-MB-468 [7] = assay: Inhibition of autophagic flux in human MDA-MB-468 cells assessed as increase in nuclear p62 expression measured after 48 hrs by immunofluorescence analysis; format: functional, cell-based; conditions: dose 5-20 µM, DDE = dose-dependent effect
MDA-MB-468 [8] = assay: Inhibition of autophagic flux in human MDA-MB-468 cells assessed as increase in nuclear p62 expression measured after 48 hrs by Western blot analysis; format: functional, cell-based; conditions: dose 5-20 µM, DDE = dose-dependent effect
MDA-MB-231 [9] = assay: Inhibition of autophagic flux in human MDA-MB-231 cells assessed as reduction in RNF8 expression at 5 to 20 uM measured after 6 to 48 hrs by Western blot analysis; format: functional, cell-based; conditions: dose 5-20 µM, time 6-48 hrs
MDA-MB-231 [10] = assay: Cell cycle arrest in human MDA-MB-231 cells assessed as increase in accumulation at S-phase at 5 to 20 uM measured after 48 hrs by propidium iodide staining based flow cytometry; format: functional; conditions: dose 5-20 µM
MDA-MB-468 [11] = assay: Cell cycle arrest in human MDA-MB-468 cells assessed as increase in accumulation at S-phase at 5 to 20 uM measured after 48 hrs by propidium iodide staining based flow cytometry; format: functional; conditions: dose 5-20 µM
MDA-MB-231 [12] = assay: Cell cycle arrest in human MDA-MB-231 cells assessed as increase in p21 expression measured after 48 hrs by Western blot analysis; format: functional, cell-based; conditions: dose 5-20 µM, DDE = dose-dependent effect
MDA-MB-231 [13] = assay: Cell cycle arrest in human MDA-MB-231 cells assessed as increase in CHK1 phosphorylation at Ser 345 residue measured after 48 hrs by Western blot analysis; format: functional, cell-based; conditions: dose 5-20 µM, DDE = dose-dependent effect
MDA-MB-468 [14] = assay: Cell cycle arrest in human MDA-MB-468 cells assessed as reduction in CDK1 expression measured after 48 hrs by Western blot analysis; format: functional, cell-based; conditions: dose 5-20 µM, DDE = dose-dependent effect
MDA-MB-468 [15] = assay: Cell cycle arrest in human MDA-MB-468 cells assessed as increase in p21 expression measured after 48 hrs by Western blot analysis; format: functional, cell-based; conditions: dose 5-20 µM, DDE = dose-dependent effect
MDA-MB-468 [16] = assay: Cell cycle arrest in human MDA-MB-468 cells assessed as increase in CHK1 phosphorylation at Ser 345 residue measured after 48 hrs by Western blot analysis; format: functional, cell-based; conditions: dose 5-20 µM, DDE = dose-dependent effect
MDA-MB-231 [17] = assay: Induction of apoptosis in human MDA-MB-231 cells assessed as increase in late apoptotic cells measured after 48 hrs by Annexin V-FITC/propidium iodide staining based flow cytometry; format: functional, cell-based; conditions: dose 5-20 µM, DDE = dose-dependent effect
MDA-MB-231 [18] = assay: Induction of apoptosis in human MDA-MB-231 cells assessed as reduction in Bcl-2 expression measured after 48 hrs by Western blot analysis; format: functional, cell-based; conditions: dose 5-20 µM, DDE = dose-dependent effect
MDA-MB-231 [19] = assay: Induction of apoptosis in human MDA-MB-231 cells assessed as increase in Bim expression measured after 48 hrs by Western blot analysis; format: functional, cell-based; conditions: dose 5-20 µM, DDE = dose-dependent effect
MDA-MB-468 [20] = assay: Induction of apoptosis in human MDA-MB-468 cells assessed as reduction in Bcl-2 expression measured after 48 hrs by Western blot analysis; format: functional, cell-based; conditions: dose 5-20 µM, DDE = dose-dependent effect
MDA-MB-468 [21] = assay: Induction of apoptosis in human MDA-MB-468 cells assessed as increase in Bak expression measured after 48 hrs by Western blot analysis; format: functional, cell-based; conditions: dose 5-20 µM, DDE = dose-dependent effect
MDA-MB-468 [22] = assay: Induction of apoptosis in human MDA-MB-468 cells assessed as increase in cytochrome c expression measured after 48 hrs by Western blot analysis; format: functional, cell-based; conditions: dose 5-20 µM, DDE = dose-dependent effect
MDA-MB-231 [23] = assay: Antitumor activity against human MDA-MB-231 cells xenografted in NOD/SCID mouse assessed as reduction in tumor size at 5 to 15 mg/kg, ip administered at 3 days interval for 24 days and measured on day 25; format: functional, organism-based; conditions: dose 5-15 mg/kg, time 25.0 day
MDA-MB-231 [24] = assay: Antitumor activity against human MDA-MB-231 cells xenografted in ip dosed NOD/SCID mouse assessed as reduction in tumor growth administered at 3 days interval for 24 days and measured during compound dosing by caliper method; format: functional, organism-based; conditions: dose 5-15 mg/kg, time 24.0 day, DDE = dose-dependent effect

Serine-protein kinase ATM (Homo sapiens), sequence (Q13315 whole entry): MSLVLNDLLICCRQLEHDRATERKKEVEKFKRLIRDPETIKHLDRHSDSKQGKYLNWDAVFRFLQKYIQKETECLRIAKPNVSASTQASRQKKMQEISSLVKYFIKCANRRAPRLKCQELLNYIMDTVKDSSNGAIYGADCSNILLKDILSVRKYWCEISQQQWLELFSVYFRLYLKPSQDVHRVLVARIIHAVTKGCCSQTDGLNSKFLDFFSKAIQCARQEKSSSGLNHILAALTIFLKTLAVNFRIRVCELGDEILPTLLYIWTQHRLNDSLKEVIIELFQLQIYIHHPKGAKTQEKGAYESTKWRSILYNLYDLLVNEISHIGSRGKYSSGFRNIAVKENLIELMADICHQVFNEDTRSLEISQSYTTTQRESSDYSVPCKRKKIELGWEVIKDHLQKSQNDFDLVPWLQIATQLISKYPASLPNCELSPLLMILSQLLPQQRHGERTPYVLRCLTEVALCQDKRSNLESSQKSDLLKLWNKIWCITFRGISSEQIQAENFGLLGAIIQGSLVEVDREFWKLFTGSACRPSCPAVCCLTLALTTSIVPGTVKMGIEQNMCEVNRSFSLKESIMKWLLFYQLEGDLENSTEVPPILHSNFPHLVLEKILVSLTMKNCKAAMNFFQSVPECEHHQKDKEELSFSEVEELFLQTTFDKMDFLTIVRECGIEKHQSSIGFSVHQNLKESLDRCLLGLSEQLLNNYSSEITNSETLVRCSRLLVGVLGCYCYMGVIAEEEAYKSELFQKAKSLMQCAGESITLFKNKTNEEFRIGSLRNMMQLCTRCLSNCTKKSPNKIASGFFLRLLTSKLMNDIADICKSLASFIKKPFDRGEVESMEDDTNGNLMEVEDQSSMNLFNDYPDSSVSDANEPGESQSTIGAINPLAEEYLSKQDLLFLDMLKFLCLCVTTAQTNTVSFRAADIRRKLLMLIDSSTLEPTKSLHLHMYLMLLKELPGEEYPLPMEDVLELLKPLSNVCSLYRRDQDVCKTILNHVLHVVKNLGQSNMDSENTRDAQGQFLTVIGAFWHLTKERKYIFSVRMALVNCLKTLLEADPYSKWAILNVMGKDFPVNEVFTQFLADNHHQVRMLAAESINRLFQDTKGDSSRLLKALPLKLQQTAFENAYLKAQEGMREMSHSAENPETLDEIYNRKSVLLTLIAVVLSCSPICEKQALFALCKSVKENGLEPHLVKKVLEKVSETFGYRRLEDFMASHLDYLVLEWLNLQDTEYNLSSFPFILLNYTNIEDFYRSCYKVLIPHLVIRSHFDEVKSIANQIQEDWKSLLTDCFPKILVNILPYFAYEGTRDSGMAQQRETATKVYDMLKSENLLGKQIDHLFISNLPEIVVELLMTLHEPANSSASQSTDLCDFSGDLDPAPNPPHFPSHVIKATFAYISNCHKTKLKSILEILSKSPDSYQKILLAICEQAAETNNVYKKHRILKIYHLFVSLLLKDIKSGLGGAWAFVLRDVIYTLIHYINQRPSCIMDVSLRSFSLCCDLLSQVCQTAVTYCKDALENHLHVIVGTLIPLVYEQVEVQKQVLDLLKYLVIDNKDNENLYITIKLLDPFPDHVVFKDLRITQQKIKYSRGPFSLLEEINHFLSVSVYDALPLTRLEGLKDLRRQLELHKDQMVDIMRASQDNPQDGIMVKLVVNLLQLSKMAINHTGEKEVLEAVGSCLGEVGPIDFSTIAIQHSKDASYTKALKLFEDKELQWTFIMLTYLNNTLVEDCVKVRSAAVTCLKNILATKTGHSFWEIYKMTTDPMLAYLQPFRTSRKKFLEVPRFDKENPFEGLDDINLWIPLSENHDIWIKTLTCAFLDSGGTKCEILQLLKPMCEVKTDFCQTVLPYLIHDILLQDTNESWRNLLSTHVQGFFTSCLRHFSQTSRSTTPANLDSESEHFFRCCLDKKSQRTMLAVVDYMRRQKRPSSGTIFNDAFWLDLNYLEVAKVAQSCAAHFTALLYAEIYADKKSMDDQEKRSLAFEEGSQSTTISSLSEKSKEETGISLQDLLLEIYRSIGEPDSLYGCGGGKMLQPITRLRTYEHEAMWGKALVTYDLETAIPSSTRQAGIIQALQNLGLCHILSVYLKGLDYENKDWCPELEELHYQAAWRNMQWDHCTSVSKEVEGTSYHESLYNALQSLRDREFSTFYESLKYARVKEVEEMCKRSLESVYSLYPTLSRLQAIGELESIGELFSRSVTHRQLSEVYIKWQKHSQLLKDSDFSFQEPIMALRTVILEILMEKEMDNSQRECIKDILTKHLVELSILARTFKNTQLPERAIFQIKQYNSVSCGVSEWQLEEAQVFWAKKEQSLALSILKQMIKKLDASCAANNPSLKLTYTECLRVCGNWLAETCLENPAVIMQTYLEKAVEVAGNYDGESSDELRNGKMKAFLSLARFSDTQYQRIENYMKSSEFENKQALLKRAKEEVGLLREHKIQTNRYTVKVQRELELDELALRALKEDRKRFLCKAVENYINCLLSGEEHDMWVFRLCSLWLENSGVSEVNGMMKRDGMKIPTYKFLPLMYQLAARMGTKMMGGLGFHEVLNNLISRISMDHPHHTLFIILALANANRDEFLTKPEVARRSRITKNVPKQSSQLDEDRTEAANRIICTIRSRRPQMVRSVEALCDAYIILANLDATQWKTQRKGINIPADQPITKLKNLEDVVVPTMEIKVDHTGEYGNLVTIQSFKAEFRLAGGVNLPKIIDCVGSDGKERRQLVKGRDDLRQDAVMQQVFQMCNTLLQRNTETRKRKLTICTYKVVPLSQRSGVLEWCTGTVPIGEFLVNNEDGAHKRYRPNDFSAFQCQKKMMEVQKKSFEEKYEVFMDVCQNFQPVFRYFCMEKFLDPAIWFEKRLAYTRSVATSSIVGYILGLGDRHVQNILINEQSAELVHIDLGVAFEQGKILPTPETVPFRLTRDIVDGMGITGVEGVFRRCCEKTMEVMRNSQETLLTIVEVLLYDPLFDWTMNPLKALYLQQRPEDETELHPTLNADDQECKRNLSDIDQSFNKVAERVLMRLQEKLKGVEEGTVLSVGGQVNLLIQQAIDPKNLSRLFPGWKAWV

Compound `O=C(NC1CCCCC1)c1[nH]cnc1-c1nc2ccccc2[nH]1` has an IC50 (SCC-25) of 18.6 µM, an IC50 (U-251) of 12.9 µM and an IC50 (LN-229) of 61.4 µM. The inhibition (MDA-MB-468 [1]) was “Active”, the inhibition (MDA-MB-231 [2]) was “Active” and the inhibition (MDA-MB-468 [3]) was “Active”. For the same compound, the Activity [4] was “Active”, the Activity (Nibrin (Homo sapiens)) was “Active” and the Activity (MDA-MB-231 [5]) was “Dde”. The Activity (MDA-MB-468 [6]) was “Dde”, the inhibition (MDA-MB-468 [7]) was “Dde” and the inhibition (MDA-MB-468 [8]) was “Dde”. The inhibition (MDA-MB-231 [9]) was “Active”, the Activity (MDA-MB-231 [10]) was “Active” and the Activity (MDA-MB-468 [11]) was “Active”. The Activity (MDA-MB-231 [12]) was “Dde”, the Activity (MDA-MB-231 [13]) was “Dde” and the Activity (MDA-MB-468 [14]) was “Dde”. For the same compound, the Activity (MDA-MB-468 [15]) was “Dde”, the Activity (MDA-MB-468 [16]) was “Dde” and the Activity (MDA-MB-231 [17]) was “Dde”. The Activity (MDA-MB-231 [18]) was “Dde”, the Activity (MDA-MB-231 [19]) was “Dde” and the Activity (MDA-MB-468 [20]) was “Dde”. For the same compound, the Activity (MDA-MB-468 [21]) was “Dde”, the Activity (MDA-MB-468 [22]) was “Dde” and the Activity (MDA-MB-231 [23]) was “Active”. For the same compound, the TGI (MDA-MB-231 [24]) was “Dde”.
